Key:
[1] = system: hormone-receptor (+) breast cancer; experiment: NSABP B-42 randomized, double-blinded, placebo-controlled trial of extended adjuvant letrozole, analysed by MammaPrint risk group; format: in vivo, human; conditions: for HR, DFS: B-42 primary endpoint; for 10-year rate (%), letrozole arm (DFS rows: disease-free survival rate; DR/BCFI rows: event rate) / # Events (Letrozole): letrozole arm; for Abs. benefit (%): 10-year
Source text: NSABP B42 (Mamounas et al., 2019. Lancet Oncol 20: 88-99) refers to a randomized, double-blinded, placebo-controlled clinical trial of extended adjuvant endocrine therapy (tx) with letrozole (L) in postmenopausal women with hormone-receptor (+) breast cancer (BC) who have completed previous adjuvant tx with an aromatase inhibitor (AI). A pre-treatment gene expression biomarker such as MammaPrint may identify breast cancers at risk of recurrence in years 5 to 10 after diagnosis, for whom EET will be beneficial.
The MammaPrint test uses the expression levels of 70 genes to assess a patient's risk of recurrence. For the primary analysis, patient tumor samples were classified into a High Risk or Low Risk group by the 0.00 threshold in the MammaPrint index (high up to and low above 0.00 index, respectively). Recently, a subgroup of ultralow tumors is defined by MammaPrint index>+0.355 (Esserman et al., 2017. JAMA Oncol 3: 1503-1510).
Population for all analyses was based on the intention-to-treat (ITT) principle: patients were analyzed according to their randomized treatment, regardless of what they actually receive. This ensures the strengths of randomization are kept (an equal balance of potential prognostic factors between both groups), but it estimates the treatment effect in clinical practice.
Within the total study population and within each treatment arm, univariate Cox Regression Analysis were performed for MammaPrint risk groups and all available clinical, pathological, therapeutic variables. Summary statistics from the Cox model included the number of patients analyzed, hazard ratio (with 95% confidence interval (CI)) of the comparison and the according p-value. A p-value less than 0.05 (two sided) was considered statistically significance.
Differences in primary and secondary endpoints between placebo and letrozole groups were assessed by stratified log-rank tests. Stratification factors included original stratification factors from the parent B-42 trial, i.e., pathological node status at diagnosis (negative vs positive), prior tamoxifen use (no vs yes), and lowest bone mineral density T score in the lumbosacral spine, total hip, or femoral neck (≤−2.0 or >−2.0 SD).
Multivariate Cox Regression Analysis were utilized to examine the interaction between EET treatment and MP Risk index. Secondary elaborated multivariate analyses were performed to examine interaction with MammaPrint, EET treatment and any clinical and pathologic variable. Summary statistics from these Cox models include the number of patients analyzed, hazard ratios (with 95% CI) of the comparisons and the according p-values.
The following event variables were used for appropriate analyses: • Distant Recurrence (DR): yes vs. no • Time to DR: continuous months • Overall Survival (OS): yes vs. no • Time to Death: continuous months • Disease Free Survival (DFS): yes vs. no • Time to DFS: continuous months • Breast Cancer Free Interval (BCFI): yes vs. no • Time to BCFI: continuous months
A Kaplan-Meier curve with corresponding Log-rank test was used to visualize the survival distribution function for each MammaPrint risk group. Cox PH models stratified by nodal status, prior tamoxifen use, and lowest bone mineral density T-score was used to explore the association among risk factors listed to survival outcomes. This was done for each treatment arm. Kaplan-Meier curves were also used to visualize the survival distribution function for each treatment group.
NSABP-B42 assessed the effect of 5 years of letrozole after 5 years of prior endocrine therapy in postmenopausal women with early stage hormone receptor positive (HR+) breast cancer. Randomization occurred five years after diagnosis.
There were 3,966 patients randomly assigned to placebo or letrozole. Among them, 63 were excluded due to either no clinical assessment or not being at risk for the primary DFS endpoint for the B-42 parent trial. Blocks were available for 2,339 patients who consented for future research. […]

[2] = system: hormone-receptor (+) breast cancer; conditions: cited from earlier work
[3] = system: early-stage ER positive breast cancer; conditions: tamoxifen for five years; during the treatment period; cited from earlier work
[4] = BCFI, MP Risk Group H, letrozole vs placebo
[5] = BCFI, MP Risk Group L, letrozole vs placebo
[6] = BCFI, MP Risk Group LNUL, letrozole vs placebo
[7] = BCFI, MP Risk Group UL, letrozole vs placebo
[8] = DFS, MP Risk Group H, letrozole vs placebo
[9] = DFS, MP Risk Group L, letrozole vs placebo
[10] = DFS, MP Risk Group LNUL, letrozole vs placebo
[11] = DFS, MP Risk Group UL, letrozole vs placebo
[12] = DR, MP Risk Group H, letrozole vs placebo
[13] = DR, MP Risk Group L, letrozole vs placebo
[14] = DR, MP Risk Group LNUL, letrozole vs placebo
[15] = DR, MP Risk Group UL, letrozole vs placebo
[16] = all patients of the translational MP cohort, letrozole vs placebo

N#Cc1ccc(C(c2ccc(C#N)cc2)n2cncn2)cc1 [Letrozole, letrozole]
HR, DFS ([1]; 6.9 years of median follow-up): 0.85 | HR, DFS ([1]; updated results, 10.3 years of median follow-up): 0.85 | reduction of distant recurrence (DR) in the letrozole arm ([1]; B-42 secondary endpoint): 28% | 10-year rate (%), letrozole arm (DFS rows: disease-free survival rate; DR/BCFI rows: event rate) ([1]; BCFI, MP Risk Group H): 14.6% | # Events (Letrozole) ([1]; BCFI, MP Risk Group H): 42 | HR (95% CI) [1, 4]: 1.15 | Abs. benefit (%) [1, 4]: −3.0% | HR (95% CI) ([1]; BCFI, MP Risk Group H, letrozole vs placebo, listed as letrozole): 1.15 (0.74, 1.79) | 10-year rate (%), letrozole arm (DFS rows: disease-free survival rate; DR/BCFI rows: event rate) ([1]; BCFI, MP Risk Group L): 8.4% | # Events (Letrozole) ([1]; BCFI, MP Risk Group L): 44 | HR (95% CI) [1, 5]: 0.51 | Abs. benefit (%) [1, 5]: 7.0% | HR (95% CI) ([1]; BCFI, MP Risk Group L, letrozole vs placebo, listed as letrozole): 0.51 (0.35, 0.74) | 10-year rate (%), letrozole arm (DFS rows: disease-free survival rate; DR/BCFI rows: event rate) ([1]; BCFI, MP Risk Group LNUL): 8.7% | # Events (Letrozole) ([1]; BCFI, MP Risk Group LNUL): 36 | HR (95% CI) [1, 6]: 0.48 | Abs. benefit (%) [1, 6]: 7.9% | HR (95% CI) ([1]; BCFI, MP Risk Group LNUL, letrozole vs placebo, listed as letrozole): 0.48 (0.32-0.73) | 10-year rate (%), letrozole arm (DFS rows: disease-free survival rate; DR/BCFI rows: event rate) ([1]; BCFI, MP Risk Group UL): 7.3% | # Events (Letrozole) ([1]; BCFI, MP Risk Group UL): 8 | HR (95% CI) [1, 7]: 0.67 | Abs. benefit (%) [1, 7]: 4.1% | HR (95% CI) ([1]; BCFI, MP Risk Group UL, letrozole vs placebo, listed as letrozole): 0.67 (0.28, 1.65) | 10-year rate (%), letrozole arm (DFS rows: disease-free survival rate; DR/BCFI rows: event rate) ([1]; DFS, MP Risk Group H): 71.2% | # Events (Letrozole) ([1]; DFS, MP Risk Group H): 91 | HR (95% CI) [1, 8]: 1.10 | Abs. benefit (%) [1, 8]: −1.6% | HR (95% CI) ([1]; DFS, MP Risk Group H, letrozole vs placebo, listed as letrozole): 1.10 (0.82, 1.47) | 10-year rate (%), letrozole arm (DFS rows: disease-free survival rate; DR/BCFI rows: event rate) ([1]; DFS, MP Risk Group L): 79.7% | # Events (Letrozole) ([1]; DFS, MP Risk Group L): 113 | HR (95% CI) [1, 9]: 0.67 | Abs. benefit (%) [1, 9]: 7.8% | HR (95% CI) ([1]; DFS, MP Risk Group L, letrozole vs placebo, listed as letrozole): 0.67 (0.52, 0.85) | 10-year rate (%), letrozole arm (DFS rows: disease-free survival rate; DR/BCFI rows: event rate) ([1]; DFS, MP Risk Group LNUL): 78.9% | # Events (Letrozole) ([1]; DFS, MP Risk Group LNUL): 93 | HR (95% CI) [1, 10]: 0.64 | Abs. benefit (%) [1, 10]: 9.5% | HR (95% CI) ([1]; DFS, MP Risk Group LNUL, letrozole vs placebo, listed as letrozole): 0.64 (0.49, 0.83) | 10-year rate (%), letrozole arm (DFS rows: disease-free survival rate; DR/BCFI rows: event rate) ([1]; DFS, MP Risk Group UL): 82.5% | # Events (Letrozole) ([1]; DFS, MP Risk Group UL): 20 | HR (95% CI) [1, 11]: 0.82 | Abs. benefit (%) [1, 11]: 1.8% | HR (95% CI) ([1]; DFS, MP Risk Group UL, letrozole vs placebo, listed as letrozole): 0.82 (0.45, 1.48) | 10-year rate (%), letrozole arm (DFS rows: disease-free survival rate; DR/BCFI rows: event rate) ([1]; DR, MP Risk Group H): 4.9% | # Events (Letrozole) ([1]; DR, MP Risk Group H): 15 | HR (95% CI) [1, 12]: 0.65 | Abs. benefit (%) [1, 12]: 2.4% | HR (95% CI) ([1]; DR, MP Risk Group H, letrozole vs placebo, listed as letrozole): 0.65 (0.34, 1.24) | 10-year rate (%), letrozole arm (DFS rows: disease-free survival rate; DR/BCFI rows: event rate) ([1]; DR, MP Risk Group L): 3.5% | # Events (Letrozole) ([1]; DR, MP Risk Group L): 20 | HR (95% CI) [1, 13]: 0.43 | Abs. benefit (%) [1, 13]: 3.7% | HR (95% CI) ([1]; DR, MP Risk Group L, letrozole vs placebo, listed as letrozole): 0.43 (0.25, 0.74) | 10-year rate (%), letrozole arm (DFS rows: disease-free survival rate; DR/BCFI rows: event rate) ([1]; DR, MP Risk Group LNUL): 3.6% | # Events (Letrozole) ([1]; DR, MP Risk Group LNUL): 17 | HR (95% CI) [1, 14]: 0.42 | Abs. benefit (%) [1, 14]: 4.0% | HR (95% CI) ([1]; DR, MP Risk Group LNUL, letrozole vs placebo, listed as letrozole): 0.42 (0.23, 0.76) | 10-year rate (%), letrozole arm (DFS rows: disease-free survival rate; DR/BCFI rows: event rate) ([1]; DR, MP Risk Group UL): 2.9% | # Events (Letrozole) ([1]; DR, MP Risk Group UL): 3 | HR (95% CI) [1, 15]: 0.53 | Abs. benefit (%) [1, 15]: 3.0% | HR (95% CI) ([1]; DR, MP Risk Group UL, letrozole vs placebo, listed as letrozole): 0.53 (0.13, 2.15) | HR, rate of DR ([1]; Excluded B-42 cohort, letrozole vs placebo): 0.92 | HR, BCFI ([1]; MP-H subgroup, after 5.2 years (time-dependent analysis)): 2.77 | HR, BCFI ([1]; MP-H subgroup, prior to 5.2 years (time-dependent analysis)): 0.65 | HR, BCFI ([1]; MP-L subgroup, after 5.2 years (time-dependent analysis)): 0.37 | HR, BCFI ([1]; MP-L subgroup, prior to 5.2 years (time-dependent analysis)): 0.65 | HR, breast cancer-free interval [1, 16]: 0.70 (0.53, 0.93) | HR, disease-free survival [1, 16]: 0.81 (0.68, 0.98) | prolongation of disease-free survival (DFS) ([2]; NSABP B42, extended letrozole therapy compared to the placebo group (Mamounas et al., 2019)): no statistically significant prolongation | reduction in distant recurrence (DR) in the letrozole arm ([2]; NSABP B42, extended letrozole vs placebo (Mamounas et al., 2019)): 28%

CC/C(=C(\c1ccccc1)c1ccc(OCCN(C)C)cc1)c1ccccc1 [tamoxifen]
reduction of recurrence rate compared to placebo [3]: 50%
